Structures can show the parent of a compound that is named as a salt.

In one experiment the test system is rat pituitary cells. In words: growth hormone secretion in rat pituitary cell cultures (GH release, RIA). The class given is cell-based. The conditions noted are these: 0.25 h; GH release from cultured rat anterior pituitary cells, 15 min incubation at 37° C., rat GH measured by double antibody RIA; read-out: ED50 (the source's name). The procedure: The bioassay employed for the determination of growth hormone secretion in rat pituitary cell cultures has been previously described--Cheng, K.; Chan, W. W.-S; Barreto, A.; Convey, E. M.; Smith, R. G. Endocrinology 124: 2791-2798 (1989)--and is summarized here: The Wistar male rats (150-200 grams) were obtained from Charles River Laboratories (Wilmington, Mass). Rats were maintained at a constant temperature (25° C.) on a 14-hr light, 10-hr dark cycle. Rat chow and water were available ad libitum. The animals were sacrificed by decapitation and anterior lobes of the pituitary quickly removed. Rat pituitary cells were isolated from pituitaries by enzymatic digestion with 0.2% collagenase and 0.2% hyaluronidase in Hank's Balanced Salt Solution. For culture, the cells were suspended in culture medium and adjusted to 1.5×10^5 cells/ml, and 1.0 ml of this suspension was placed in each well of a 24-well tray (Costar, Cambridge, Mass.). Cells were maintained in a humidified 5% CO2 -95% air atmosphere at 37° C. for 3 to 4 days. The culture medium consisted of DMEM containing 0.37% NaHCO3, 10% horse serum, 2.5% fetal bovine serum, 1% non-essential amino acids, 1% glutamine, 1% nystatin, and 0.1% gentamycin. On the day of an experiment, cells were washed twice 11/2 hrs prior to and once more immediately before the start of the experiment with the above culture medium containing 25 mM HEPES, pH 7.4. GH release was initiated by adding 1 ml of fresh medium containing test agents to each well in quadruplicate. Incubation was carded out at 37° C. for 15 min. After incubation, medium was removed and centrifuged at 2,000×g for 15 min to remove any cellular material. The supernatant fluid was removed and assayed for GH content. Rat GH in culture medium was measured by a double antibody RIA procedure using materials obtained from Dr. A. F. Parlow (Harbor-UCLA medical Center, Torrance, Calif.) and expressed in terms of the standard rat GH RP-2. ED50 values for test compounds were computed by fitting a four-parameter logistic function to the dose-response curve. Least squares estimates of the four-parameter logistic function coefficients and their variances were derived using the iterative algorithm described by Bates and Watts.
Turning to `CNC(=O)Nc1ccccc1-c1ccc(CNC(=O)[C@@H](Cc2c[nH]c3ccccc23)NC(=O)C(C)(C)N)cc1` [Example 6, (R)-α-[(2-Amino-2-methyl-1-oxopropyl)amino]-N-[[2'-[[(methylamino)carbonyl]amino][1,1'-biphenyl]-4-yl]methyl]-1H-indole-3-propanamide, trifluoroacetate], the EC50 is over 500 nM.

In the case of `CC(C)(N)CC(=O)N[C@H](Cc1ccccc1)C(=O)NCc1ccc(-c2ccccc2-c2nnn[nH]2)cc1` [Example 2, (R)-α-[(3-Amino-3-methyl-1-oxobutyl)amino]-N-[[2'-(1H-tetrazol-5-yl)[1,1'-biphenyl]-4-yl]methyl]benzene-propanamide, trifluoroacetate], the EC50 was under 500 nM.

With `CC[C@@H](NC(=O)CC(C)(C)N)C(=O)N(Cc1ccc(-c2ccccc2-c2nnn[nH]2)cc1)c1ccccc1` [Example 4, (R)-2-[(3-Amino-3-methyl-1-oxobutyl)amino]-N-phenyl-N-[[2'-(1H-tetrazol-5-yl)[1,1'-biphenyl]-4-yl]methyl]butanamide, trifluoroacetate], the EC50 is over 500 nM.

With `CC(C)(N)CC(=O)N[C@H](Cc1c[nH]c2ccccc12)C(=O)NCc1ccc(-c2ccccc2-c2nnn[nH]2)cc1` [Example 3, (R)-α-[(3-Amino-3-methyl-1-oxobutyl)amino]-N-[[2'-(1H-tetrazol-5-yl)[1,1'-biphenyl]-4-yl]methyl]-1H-indole-3-propanamide, trifluoroacetate], the EC50 is under 500 nM.

For the compound `CC(C)(N)CC(=O)N[C@H](Cc1c[nH]c2ccccc12)C(=O)NCc1ccc(-c2ccccc2NC(=O)NCCO)cc1` [Example 17, (R)-α-[(3-Amino-3-methyl-1-oxobutyl)amino]-N-[[2'-[[(2-hydroxyethylamino)carbonyl]amino][1,1'-biphenyl]-4-yl]-methyl]-1H-indole-3-propanamide, trifluoroacetate], the EC50 was over 500 nM.

For the compound `CC(C)(N)CC(=O)N[C@H](CCc1ccccc1)C(=O)NCc1ccc(-c2ccccc2-c2nnn[nH]2)cc1` [Example 1, (R)-α-[(3-Amino-3-methyl-1-oxobutyl)amino]-N-[[2'-(1H-tetrazol-5-yl)[1,1'-biphenyl]-4-yl]methyl]benzene-butanamide, trifluoroacetate], the EC50 is over 500 nM.

For the compound `CNC(=O)Nc1ccccc1-c1ccc(CNC(=O)[C@@H](Cc2c[nH]c3ccccc23)NC(=O)CC(C)(C)N)cc1` [Example 15, (R)-α-[(3-Amino-3-methyl-1-oxobutyl)amino]-N-[[2'-[[(methylamino)carbonyl]amino][1,1'-biphenyl]-4-yl]-methyl]-1H-indole-3-propanamide, trifluoroacetate], the EC50 is over 500 nM.

The experiment is the same for the next values; noted with them: GH release from cultured rat anterior pituitary cells, 15 min incubation at 37° C., rat GH measured by double antibody RIA; read-out: ED50 (the source's name).
As to `CN(Cc1ccc(-c2ccccc2-c2nnn[nH]2)cc1)C(=O)[C@@H](CCc1ccccc1)NC(=O)CC(C)(C)N.O=C(O)C(F)(F)F` [Example 8a, (R)-α-[(3-Amino-3-methyl-1-oxybutyl)amino]-N-methyl-N-[[2'-(1H-tetrazol-5-yl)-[1,1'-biphenyl]-4-yl]methyl]benzenebutanamide, trifluoroacetate], the EC50 was over 500 nM.

Take `CNC(=O)NCc1ccccc1-c1ccc(CN(C)C(=O)[C@@H](CCc2ccccc2)NC(=O)CCC(C)(C)N)cc1.O=C(O)C(F)(F)F` [Example 12]: the EC50 is under 500 nM.

As to `COc1ccc(N(Cc2ccc(-c3ccccc3-c3nnn[nH]3)cc2)C(=O)[C@@H](CCc2ccccc2)NC(=O)CC(C)(C)N)cc1.O=C(O)C(F)(F)F` [Example 30, (R)-α-[(3-Amino-3-methyl-1-oxybutyl)amino]-N-(4-methoxyphenyl)-N-[[2'-(1H-tetrazol-5-yl)-[1,1'-biphenyl]-4-yl]methyl]-benzenebutanamide, trifluoroacetate], the EC50 was over 500 nM.

For `CCN(Cc1ccc(-c2ccccc2-c2nnn[nH]2)cc1)C(=O)[C@@H](CCc1ccccc1)NC(=O)CC(C)(C)N.O=C(O)C(F)(F)F` [Example 19, (R)-α-[(3-Amino-3-methyl-1-oxybutyl)amino]-N-ethyl-N-[[2'-(1H-tetrazol-5-yl)-[1,1'-biphenyl]-4-yl]methyl]benzenebutanamide, trifluoroacetate], the EC50 is over 500 nM.

`CC(C)(N)CC(=O)N[C@H](COCc1ccccc1)C(=O)NCc1ccc(-c2ccccc2-c2nnn[nH]2)cc1.O=C(O)C(F)(F)F` [Example 28, (R)-α-[(3-Amino-3-methyl-1-oxybutyl)amino]-N-[[2'-(1H-tetrazol-5-yl)-[1,1'-biphenyl]-4-yl]methyl]-3-[(phenylmethyl)oxy]propanamide, trifluoracetate]: the EC50 was over 500 nM.

As for `CN(Cc1ccc(-c2ccccc2-c2nnn[nH]2)cc1)C(=O)[C@@H](CCc1ccccc1)NC(=O)CCC(C)(C)N.O=C(O)C(F)(F)F` [Example 11, (R)-α-[(4-Amino-4-methyl-1-oxopentyl)amino]-N-methyl-N-[[2'-(1H-tetrazol-5-yl)[1,1'-biphenyl]-4-yl]methyl]benzenebutan amide, trifluoroacetate], the EC50 was under 500 nM.

“(R)-α-[(2-Amino-2-methyl)-1-oxopropyl]amino-N -methyl-N -[2'-(1H -tetrazol-5-yl)[1,1'-biphenyl]-4-yl]butanamide, trifluoroacetate [Example 34]”: the EC50 is under 500 nM.

In the case of `CNC(=O)NCc1ccccc1-c1ccc(CN(C)C(=O)[C@@H](CCc2ccccc2)NC(=O)CC(C)(C)N)cc1.O=C(O)C(F)(F)F` [Example 10], the EC50 is under 500 nM.

Consider “(R)-α-[(2-Amino-2-methyl)-1-oxopropyl]amino-N-methyl-N-[(2'-[[(methylamino)carbonyl]amino)methyl][1,1'-biphenyl]-4-yl]benzenebutanamide, trifluoroacetate [Example 35]”, for which the EC50 is under 500 nM.

Regarding `CNC(=O)NCc1ccccc1-c1ccc(CN(C)C(=O)[C@@H](Cc2c[nH]c3ccccc23)NC(=O)C(C)(C)N)cc1.O=C(O)C(F)(F)F` [Example 14], the EC50 was under 500 nM.

Turning to `CCN(Cc1ccc(-c2ccccc2CNC(=O)NC)cc1)C(=O)[C@@H](CCc1ccccc1)NC(=O)CC(C)(C)N.O=C(O)C(F)(F)F` [Example 21], the EC50 was under 500 nM.

As for `CN(Cc1ccc(-c2ccccc2C#N)cc1)C(=O)[C@@H](CCc1ccccc1)NC(=O)C(C)(C)N.O=C(O)C(F)(F)F` [Example 7b, (R)-α-[(2-amino-2-methyl-1-oxypropyl)amino]-N-[[2'-cyano-[1,1'-biphenyl]-4-yl]methyl]-N-methyl-benzenebutanamide trifluoroacetate], the EC50 is over 500 nM.

As to `CN(Cc1ccc(-c2ccccc2-c2nnn[nH]2)cc1)C(=O)[C@@H](CCc1ccccc1)NC(=O)C(C)(C)N.O=C(O)C(F)(F)F` [Example 7a, (R)-α-[(2-Amino-2-methyl-1-oxypropyl)amino]-N-methyl-N-[[2'-(1H-tetrazol-5-yl)-[1,1'-biphenyl]-4-yl]methyl]benzenebutanamide trifluoroacetate], the EC50 is under 500 nM.

`CC(C)(N)C(=O)N[C@H](CCc1ccccc1)C(=O)N(Cc1ccc(-c2ccccc2-c2nnn[nH]2)cc1)c1ccc(O)cc1.O=C(O)C(F)(F)F` [Example 31, (R)-α-[(2-Amino-2-methyl-1-oxypropyl)amino]-N-(4-hydroxyphenyl)-N-[[2'-(1H-tetrazol-5-yl)-[1,1'-biphenyl]-4-yl]methyl]benzene-butanamide, trifluoroacetate]: the EC50 was over 500 nM.

`CNC(=O)Nc1ccccc1-c1ccc(N(C)C(=O)[C@@H](CCc2ccccc2)NC(=O)C(C)(C)N)cc1.O=C(O)C(F)(F)F` [Example 33]: the EC50 was over 500 nM.

As for `CC(C)(N)CC(=O)N[C@H](COCc1ccccc1)C(=O)NCc1ccc(-c2ccccc2NC(=O)NCCO)cc1.O=C(O)C(F)(F)F` [Example 26, (R)-α-[(3-Amino-3-methyl-1-oxobutyl)amino]-N-[[(2'-[(2-hydroxyethylamino)carbonyl]amino][1,1'-biphenyl]-4-yl]-methyl]-3-[(phenylmethyl)oxy]propanamide, trifluoracetate], the EC50 was over 500 nM.

On to `COc1ccc(N(Cc2ccc(-c3ccccc3-c3nnn[nH]3)cc2)C(=O)[C@@H](CCc2ccccc2)NC(=O)C(C)(C)N)cc1.O=C(O)C(F)(F)F` [Example 29, (R)-α-[(2-Amino-2-methyl-1-oxypropyl)amino]-N-(4-methoxyphenyl)-N-[[2'-(1H-tetrazol-5-yl)-[1,1'-biphenyl]-4-yl]methyl]benzenebutanamide, trifluoroacetate], for which the EC50 was over 500 nM.

Consider `CNC(=O)NCc1ccccc1-c1ccc(CN(C)C(=O)[C@@H](CCc2ccccc2)NC(=O)C(C)(C)N)cc1.O=C(O)C(F)(F)F` [Example 9], for which the EC50 is under 500 nM.

The values are drawn from US5726319A, “Biphenyl substituted dipeptide analogs promote release of growth hormone” (Merck & Co., Inc., priority 1995, dated 1998).
